# Experimental data reported in US20240041976A1, “COMPOSITION AND USE” (priority 2020, published 2024).
# System: Methicillin-Resistant Staphylococcus aureus
# Assay type: in vivo, mice
# Conditions: repeat on larger groups; data not shown
# Procedure: The experiment was performed essentially as set out in Example 2, except that the following regimes as described below, were used.
# 50-70 μl of cream was applied per wound.
# Treatment was daily for 4 days.
# The rifampicin/MP1 experiment was repeated on a larger group of mice in each category (8 mice for each of rifampicin, MP1, rifampicin+MP1, 8 mice with APO base cream 30% as used for rifampicin and MP1, 7 mice untreated). Seven mice were also treated with fucidin cream (2% fusidic acid in a cream base) as a positive control.
compound,measurement,value
"C/C=C(\NC(=O)c1csc(-c2csc(-c3ccc4c(n3)-c3csc(n3)[C@H]([C@@H](C)O)NC(=O)c3csc(n3)[C@H](C(C)C)NC(=O)c3csc(n3)/C(=C/C)NC(=O)[C@H]([C@@H](C)O)NC(=O)c3csc-4n3)n2)n1)C(=O)NC[C@@H](C)O [MP1, micrococcin P1]",antimicrobial effect in the mouse skin wound model,Neither MP1 nor the cream base showed any antimicrobial effect
